Experiment [1] deals with CD4+ T cells in PBMC from subjects without T1D. Nature of the experiment: CFSE-based proliferation assay, PBMC of subjects without T1D. The format is cell-based, human. To be noted: CFSE-labelled PBMC, peptide 10 μM, mean CDI. How it is done: (§1) Blood was obtained by venepuncture. Peripheral blood mononuclear cells (PBMC) were isolated over Ficoll-paque (GE Healthcare) and washed twice in phosphate buffered saline (PBS) as described. The CFSE (5,6-carboxyfluorescein diacetate succinimidyl ester) proliferation assays were performed as described previously. CFSE-labelled PBMC were cultured with either: no antigen, full-length C-peptide (^PI33-63), or ^PI33-63 Q38E (referred to as Q6E), ^PI33-63 Q41E (referred to as Q9E), ^PI33-63 Q54E, (referred to as Q22E) ^PI33-63 Q63E (referred to as Q31E), or ^PI33-63 with all glutamines substituted for glutamic acid, (referred to as QallE). See Supplementary Table 5 for a detailed description of the peptides. Each peptide was used at a final concentration of 10 μM. Positive controls were tetanus toxoid (TT 10LfU/ml, Statens Serum Institut) and/or anti-CD3 (OKT3 10 ng/ml). The results are presented as a cell division index (CDI), the ratio of the number of CD4^+ T cells that have proliferated in the presence of antigen to the number of CD4^+ T cells that have proliferated in the absence of antigen.
(§2) Our analysis of CD4^+ Jurkat lines expressing TCRs derived from primary CD4^+ T cells used TCRs derived from CD4^+ T cells that were selected for their specificity for WT C-peptide. […] This may be due to Q to E substitutions being poorly tolerated by the TCRs that were selected based on their recognition of WT C-peptide. To address this, we measured polyclonal CD4^+ T-cell responses in PBMC from people with recent onset type 1 diabetes. (see Supplementary Tables 5 and 6 for details of each subject). […] Next, in a separate cohort we investigated CD4^+ T-cell responses to the five C-peptide variants with individual Q to E substitutions in PBMC of people with recent onset type 1 diabetes (Fig. 3B). We found, as expected, that a majority of PBMC samples responded to WT C-peptide, but responses to Q to E substituted C-peptide variants were not stronger, in fact in most cases they were weaker, than responses to WT C-peptide. (See Supplementary Tables 7–9 for results from individual subjects). Finally, we asked if people without T1D, but who carried the T1D-associated HLA alleles, HLA-DQ2, or HLA-DQ8 had stronger responses to Q to E substituted C-peptide variants (Fig. 3C). Here few subjects had response to WT C-peptide and only a minority had greater responses to Q to E substituted variants of C-peptide, compared to WT C-peptide.
(§3) Fig. 3 PBMC responses to WT and deamidated C-peptide variants. (A) Proliferation in responses, measured as a cell division index (CDI) to WT or QallE C-peptide were compared in 8 PBMC from 8 people with recent onset T1D. Responses from the same individual are linked. […] (B) PBMC proliferation responses to WT and C-peptide variants with individual Q to E substitution and QallE from people with recent onset T1D (B) and HLA matched control subjects who don't have T1D (C). Only difference which reached statistical significance are marked (* = P < 0.05). For responses in subjects without T1D, none of the differences between groups reached statistical significance, p > 0.05, by Wilcoxon matched pairs signed rank test of Log 10 transformed CDI data. Each point is a different individual, bars show the mean and the standard deviation for each group.

For experiment [2], the system named is CD4+ T cells in PBMC from people with recent onset T1D. Nature of the experiment: CFSE-based proliferation assay, PBMC of people with T1D. The class given is cell-based, human. To be noted: peptide 10 μM; for Cell division index (CDI): CFSE-labelled PBMC. The procedure:
as §1, §2, §3

Consider “EAEDLEVGEVELGGGPGAGSLEPLALEGSLE [QallE, C-peptide with all four glutamines substituted for glutamic acid]”, for which the “Cell division index (CDI)” value amounted to 15.8 in experiment [1] (donor 1 without T1D); 1.2 in experiment [1] (donor 2 without T1D); 0.9 in experiment [1] (donor 3 without T1D); 1.3 in experiment [1] (donor 4 without T1D); 1.7 in experiment [1] (donor 5 without T1D); 7.8 in experiment [1] (donor 6 without T1D). Besides, the “Cell division index (CDI)” value in experiment [2] (T1D donor 1, mean CDI = proliferated CD4+ T cells with antigen / without antigen) is 3.5; in experiment [2] (T1D donor 2, mean CDI), 8.6; in experiment [2] (T1D donor 3, mean CDI) it was 2.1; in experiment [2] (T1D donor 4, mean CDI), 2.9; in experiment [2] (T1D donor 5, mean CDI), 4.8; in experiment [2] (T1D donor 6, mean CDI) it was 1.5. Moreover, the “Cell division index (CDI)” value was determined as 2.5 in experiment [2] (T1D donor 7, mean CDI); 15.9 in experiment [2] (T1D donor 8, mean CDI); 0.3 in experiment [2] (T1D donor 9, mean CDI); 1.0 in experiment [2] (T1D donor 10, mean CDI); 1.0 in experiment [2] (T1D donor 11, mean CDI); 1.4 in experiment [2] (T1D donor 12, mean CDI). Besides, the “Cell division index (CDI)” value in experiment [2] (T1D donor 13, mean CDI) is recorded as 24.7; in experiment [2] (T1D donor 14, mean CDI) it was 15.1; in experiment [2] (T1D donor 15, mean CDI) it was 21.3; in experiment [2] (T1D donor 16, mean CDI), 0.7; in experiment [2] (T1D donor 17, mean CDI), 2.0; in experiment [2] (T1D donor 18, mean CDI), 1.5. The “CD4+ T-cell proliferation response compared with WT C-peptide” value in experiment [2] (PBMC from 8 people with recent onset T1D, Fig. 3A, difference not statistically significant) is reported as “slightly weaker response”.

Regarding “EAEDLQVGEVELGGGPGAGSLQPLALEGSLQ [Q9E, C-peptide variant with glutamine 9 substituted for glutamic acid]”, the “Cell division index (CDI)” value in experiment [1] (donor 1 without T1D) is listed as 1.0; in experiment [1] (donor 2 without T1D) it was 1.4; in experiment [1] (donor 3 without T1D), 1.2; in experiment [1] (donor 4 without T1D) it was 0.8; in experiment [1] (donor 5 without T1D) it was 6.1; in experiment [1] (donor 6 without T1D), 3.4. The “Cell division index (CDI)” value in experiment [2] (T1D donor 9, mean CDI) stood at 3.9; in experiment [2] (T1D donor 10, mean CDI), 1.3; in experiment [2] (T1D donor 11, mean CDI), 0.8; in experiment [2] (T1D donor 12, mean CDI), 8.0; in experiment [2] (T1D donor 13, mean CDI), 38.4; in experiment [2] (T1D donor 14, mean CDI), 11.1. For the same sequence, the “Cell division index (CDI)” value in experiment [2] (T1D donor 15, mean CDI) turned out to be 5.1; in experiment [2] (T1D donor 16, mean CDI), 3.7; in experiment [2] (T1D donor 17, mean CDI), 11.3; in experiment [2] (T1D donor 18, mean CDI) it was 3.4.

In the case of “EAEDLQVGQVELGGGPGAGSLQPLALEGSLE [Q31E, C-peptide variant with glutamine 31 substituted for glutamic acid]”, the “Cell division index (CDI)” value in experiment [1] (donor 1 without T1D) is on record as 1.3; in experiment [1] (donor 2 without T1D) it was 1.7; in experiment [1] (donor 3 without T1D) it was 3.6; in experiment [1] (donor 4 without T1D), 0.8; in experiment [1] (donor 5 without T1D) it was 22.3; in experiment [1] (donor 6 without T1D) it was 1.9. In addition, the “Cell division index (CDI)” value in experiment [2] (T1D donor 9, mean CDI) came to 0.3; in experiment [2] (T1D donor 10, mean CDI) it was 2.0; in experiment [2] (T1D donor 11, mean CDI), 0.9; in experiment [2] (T1D donor 12, mean CDI), 3.7; in experiment [2] (T1D donor 13, mean CDI), 11.8; in experiment [2] (T1D donor 14, mean CDI), 3.6. Further, the “Cell division index (CDI)” value stood at 6.4 in experiment [2] (T1D donor 15, mean CDI); 1.5 in experiment [2] (T1D donor 16, mean CDI); 7.6 in experiment [2] (T1D donor 17, mean CDI); 1.0 in experiment [2] (T1D donor 18, mean CDI).

For the origin of these results see paper PMC9811213, “Glutamine deamidation does not increase the immunogenicity of C-peptide in people with type 1 diabetes” (Journal of Translational Autoimmunity, 2022).
